Experimental data published in US20240245680A1, “Methods of Treating Retinal Vasculopathies” (Unity Biotechnology, Inc., priority 2021, published 2024).
Entries after “also recorded” stand apart in the source; their conditions may differ.

Columns and labels:
cellular ATF4 protein = test: ATF4-HiBiT reporter assay in H2122 cells (GCN2 pathway activation); type: cell-based; conditions: five hours, quarter-log dilutions from 10 μM (FIG. 10A)
Experimental: Without any limitations, such assays may be used to test other compounds for GCN2 pathway activation. Activating transcription factor 4 (ATF4) was C-terminally tagged in H2122 cells (CRL-5985™) with a high affinity luciferase complementation fragment (HiBiT) through a knock-in approach using CRISPR-Cas12a technology and a single-stranded oligo DNA nucleotides (ssODNs) template carrying the HiBiT tag. Following reporter cell-line generation (H2122 ATF4-HiBIT) cells were seeded in a 96-well plate at near confluency and treated the next day with Compound 39 for five hours. A dose response was generated using quarter-log dilutions using 10 μM as the starting concentration. The Nano-Glo® HiBiT Lytic Detection (Promega®) reagent was added after five hours and allowed for plate-based bioluminescent quantification of cellular ATF4 protein using an add-mix-read assay format. Peak activation of ATF4 expression was detected at ˜250 nM of Compound 39.

[1] = tested on: p-eIF2a, ATF4, DDIT3 (CHOP); test: Immunoblot of p-eIF2a, ATF4 and DDIT3 in mouse embryonic fibroblasts; type: cell-based; conditions: MEF cells, 250 nM, five hours, immunoblot (FIG. 10B)
Experimental: Next, mouse embryonic fibroblasts (MEF) cells were cultured to near confluency and treated for five hours with a fixed concentration (250 nM) of Compound 39. Cells were harvested in LSD lysis buffer and homogenates were separated by SDS-PAGE. Immunoblotting was performed overnight using antibodies targeting p-eIF2a (Clone D9G8), ATF4 (Clone D4B8), and DNA damage inducible transcript 3 (DDIT3) (Clone 9C8). Compound 39 treatment increases the levels of phospho-eIF2a (p-eIF2a) as well as ATF4 and DDIT3 (CHOP).

DDIT3 expression = test: DDIT3 gene expression (qPCR) in HRMEC; type: cell-based, human; conditions: five hours, quarter-log dilutions from 10 μM, qPCR (FIG. 10C)
Experimental: Primary Human Retinal Microvascular Endothelial Cells (HRMEC—Cell Systems™ Corp., ACBRI 181; Lot #181.04.02.02.02) were cultured in Vascular Cell Basal Medium (ATCC® Lot 90909277) with Endothelial Cell Growth Kit-VEGF (ATCC Lot 80720201) with additional FBS added to a final concentration of 5% FBS. Cells were seeded in a 96-well plate at near confluency and treated the next day with Compound 39 for five hours. A dose response was generated using quarter-log dilutions using 10 μM as the starting concentration. Following treatment, RNA was extracted using the RNeasy® 96-Kit (Qiagen®), and cDNA was next generated using Superscript™ IV VILO™ Master Mix (Thermofisher®). qPCR was performed using standard TaqMan® reagents and conditions. DDTI3 gene expression was detected using primer Hs00358796_g1 and Tbp was used as a control gene using primer (Hs99999910_m1). Peak activation of DDIT3 expression was detected at ˜250 nM Compound 39.

[2] = tested on: Slc7a11 and Serpinf1 gene expression in retina; test: Retinal Slc7a11 and Serpinf1 gene expression after IP dosing, normoxic and OIR neonatal mice; type: in vivo, mouse; conditions: IP 10, 30 or 90 mpk at P12, 4 or 24 hours
Experimental: To investigate the pharmacodynamic effect of Compound 39, it was intraperitoneally administrated at either 10, 30, or 90 mpk in both normoxic and OIR neonatal mice. The dosing formulation was based on a vehicle comprising 1% Pluronic F-68/1% HPMC, 15% captisol. Both normoxic and OIR neonates were treated at P12 (the end of hyperoxia) and taken down after 4 hours, or 24 hours later at P13. Retinas were dissected, and RNA was extracted using a fully automated, spin-column-based nucleic acid extraction instrument (Qiacube Connect™). qPCR was performed using standard TaqMan reagents and conditions. Slc7a11, Serpinf1, and Tbp (control) gene expression was determined using primers Mm00442530_m1, Mm00441270_m1, and Mm01277042_m1, respectively.

[3] = tested on: ATF4, p-eIF2a, HIF1α protein in retina; test: Retinal immunoblot of ATF4, p-eIF2a and HIF1α after IP dosing, normoxic and OIR retinas; type: in vivo, mouse; conditions: IP 30 mpk, 4 hours after administration, OIR neonates, immunoblot (FIG. 13)
Experimental: Normoxic and OIR eye retinas were dissected 4 hours after Compound 39 administration and the harvested samples were kept on ice and homogenized using Precellys (500 μL tubes) tissue homogenizer in 300 μL LSD Sample/Lysis buffer. Homogenized samples were then centrifuged to separate supernatant from debris. Lysates were separated by SDS-PAGE and immunoblotted for ATF4 (D4B8), p-eIF2a (D9G8), and HIF1α (Novus™, cat. NB100-449) and control protein Actinin (Cell Signaling™, cat. 3134S).

OIR mouse model = test: Oxygen-induced retinopathy (OIR) mouse model, retinal flatmounts at P17; type: in vivo; conditions: OIR pups, two 90 mpk intraperitoneal doses (P12 and P14), read at P17 (FIG. 14A, 15B)
From the text: The OIR model is based on the exposure of mouse pups to hyperoxia during a phase when their retinal vasculature is still developing. This leads to capillary depletion, and upon return to room air, results in retinal ischemia and proliferative vascular disease in the retinal vasculature or oxygen-induced retinopathy.
C57BL/6J pups at postnatal day 7 (P7) are housed in a hyperoxic chamber (75% O2) for 5 days (n=10 per cage) leading to vessel regression in the center of the retina. CD-1 fostering mothers are rotated before and 2-3 days after entering the chamber. […]
Retinas are dissected and incubated overnight with rhodamine-labeled lectin from Bandeiraea simplicifolia (Griffonia simplicifolia) (1:100) in 1 mM CaCl2) in PBS to visualize vaso-obliterated (VO) or neovascular (NV) areas. […] Images can be analyzed on Visiopharm® to determine % VO or % NV of total retina. […]
Avascular areas and areas of neovascularization were quantified after harvest and staining of retinal flatmounts at P17 in the model.
OIR pups were treated with intraperitoneal injection of 90 mpk Compound 39 at P12, then these pups were removed to room air with their nursing mothers, repeat dosed at P14, and were sacrificed at P17. […] To determine avascular or neovascular areas, retinas were flatmounted, and stained with isolectin B4 (IB4) for fluorescence microscopy. […]

Compound: CNc1nc2ccc(-c3c(C)ccc(C(=O)c4c(-c5ccccc5)n(C)n(-c5ccccc5)c4=O)c3N)cc2s1 [Compound 39, 4-(2-Amino-4-methyl-3-(2-(methylamino)benzo[d]thiazol-6-yl)benzoyl)-1-methyl-2,5-diphenyl-1H-pyrazol-3(2H)-one]
- concentration of peak activation of ATF4 expression (cellular ATF4 protein): ~250 nM
- levels of ATF4 [1]: increases
- levels of DDIT3 (CHOP) [1]: increases
- levels of phospho-eIF2a (p-eIF2a) [1]: increases
- concentration of peak activation of DDIT3 expression (DDIT3 expression): ~250 nM
- induction of retinal Slc7a11 gene expression ([2]; normoxic and OIR neonatal mice (FIG. 12A)): dose-dependent induction
- induction of retinal Serpinf1 gene expression ([2]; normoxic and OIR neonatal mice (FIG. 12B)): dose-dependent induction
- HIF1α protein levels in retina [3]: downregulated
- levels of ATF4 protein in retina [3]: increased
- phospho-eIF2α levels in retina [3]: increased
- neovascularization (OIR mouse model): significant reversal; also recorded: significantly suppressed
